Here are results for one molecule from ChEMBL document CHEMBL4819064, “Discovery of new pyrimidopyrrolizine/indolizine-based derivatives as P-glycoprotein inhibitors: Design, synthesis, cytotoxicity, and MDR reversal activities” (Eur J Med Chem, 2021).

Data set [1] deals with MCF7. Briefly: Induction of apoptosis in human MCF7 cells assessed as early apoptotic cells at 0.125 uM after 72 hrs by Annexin V-FITC/propidium iodide staining-based flow cytometric analysis (reference value: 4.6 %). Format: functional.
The target of data set [2] is ATP-dependent translocase ABCB1 (Homo sapiens, UniProt P08183). In words: Inhibition of P-gp in human MCF7/ADR cells assessed as increase in Rho123 accumulation measured after 2 hrs by flow cytometry. Particulars: nci/adr-res. Format: cell-based. For orientation: In flow cytometry, cells or beads pass a laser one at a time.
ATP-dependent translocase ABCB1, sequence (P08183 whole entry): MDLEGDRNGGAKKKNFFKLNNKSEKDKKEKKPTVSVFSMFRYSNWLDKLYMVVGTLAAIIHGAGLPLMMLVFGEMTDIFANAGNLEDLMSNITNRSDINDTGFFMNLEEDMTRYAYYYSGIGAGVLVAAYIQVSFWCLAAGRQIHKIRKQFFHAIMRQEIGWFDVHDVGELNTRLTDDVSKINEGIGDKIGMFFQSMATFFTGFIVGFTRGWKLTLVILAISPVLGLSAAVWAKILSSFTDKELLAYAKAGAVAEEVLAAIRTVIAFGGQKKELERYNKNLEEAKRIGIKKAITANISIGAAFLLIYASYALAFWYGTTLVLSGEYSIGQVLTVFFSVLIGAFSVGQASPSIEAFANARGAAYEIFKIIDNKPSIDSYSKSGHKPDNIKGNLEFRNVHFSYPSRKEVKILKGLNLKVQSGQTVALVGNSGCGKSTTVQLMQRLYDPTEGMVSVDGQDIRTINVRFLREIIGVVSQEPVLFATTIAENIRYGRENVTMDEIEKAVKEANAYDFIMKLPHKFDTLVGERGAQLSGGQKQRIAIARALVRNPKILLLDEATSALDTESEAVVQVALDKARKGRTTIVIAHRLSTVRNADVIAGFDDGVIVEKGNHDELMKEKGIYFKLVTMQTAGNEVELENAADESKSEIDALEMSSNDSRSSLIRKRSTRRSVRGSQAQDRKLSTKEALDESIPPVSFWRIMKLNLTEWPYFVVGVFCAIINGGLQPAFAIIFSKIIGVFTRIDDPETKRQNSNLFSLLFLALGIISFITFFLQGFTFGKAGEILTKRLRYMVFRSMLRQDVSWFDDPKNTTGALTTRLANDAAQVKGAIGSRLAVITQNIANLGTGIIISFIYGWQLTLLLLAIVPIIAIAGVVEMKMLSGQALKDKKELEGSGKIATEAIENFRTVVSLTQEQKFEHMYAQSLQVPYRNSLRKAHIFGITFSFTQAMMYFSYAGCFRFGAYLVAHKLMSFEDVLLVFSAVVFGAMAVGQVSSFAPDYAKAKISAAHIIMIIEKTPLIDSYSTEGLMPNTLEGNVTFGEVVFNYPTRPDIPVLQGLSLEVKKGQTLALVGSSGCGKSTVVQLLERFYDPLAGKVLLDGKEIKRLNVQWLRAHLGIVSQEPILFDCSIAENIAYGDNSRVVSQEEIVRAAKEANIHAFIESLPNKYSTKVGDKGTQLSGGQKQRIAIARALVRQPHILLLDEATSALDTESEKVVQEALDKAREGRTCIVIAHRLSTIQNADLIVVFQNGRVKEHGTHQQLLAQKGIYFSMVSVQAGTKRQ
Data set [3] relates to MCF7. In words: Cell cycle arrest in human MCF7 cells assessed as accumulation at G2/M phase at 0.5 uM incubated for 72 hrs by PI staining based flow cytometric analysis (reference value: 15 +/- 1.5 %). Format: functional.
In data set [4] the test system is MCF7. In words: Induction of apoptosis in human MCF7 cells assessed as early apoptotic cells at 0.250 uM after 72 hrs by Annexin V-FITC/propidium iodide staining-based flow cytometric analysis (reference value: 4.6 %). Format: functional. Particulars: dose 0.25 µM.
The subject of data set [5] is MCF7. Briefly: Induction of apoptosis in human MCF7 cells assessed as late apoptotic cells at 0.250 uM after 72 hrs by Annexin V-FITC/propidium iodide staining-based flow cytometric analysis (reference value: 2.8 %). The format is functional. The settings on record: dose 0.25 µM.
Data set [6] concerns MCF7. Briefly: Induction of apoptosis in human MCF7 cells assessed as necrotic cells at 0.5 uM after 72 hrs by Annexin V-FITC/propidium iodide staining-based flow cytometric analysis (reference value: 6.2 %). Format: functional.
For data set [7], the system named is MCF7. In words: Induction of apoptosis in human MCF7 cells assessed as viable cells at 0.125 uM after 72 hrs by Annexin V-FITC/propidium iodide staining-based flow cytometric analysis (reference value: 86.4 %). Format: functional. Particulars: read-out: Activity.
The test system of data set [8] is MCF7. In words: Cell cycle arrest in human MCF7 cells assessed as accumulation at pre-G1 phase at 0.5 uM incubated for 72 hrs by PI staining based flow cytometric analysis (reference value: 1.6 +/- 0.2 %). Format: functional.
Data set [9] has as its system MCF7. In words: Cell cycle arrest in human MCF7 cells assessed as accumulation at G2/M phase at 0.250 uM incubated for 72 hrs by PI staining based flow cytometric analysis (reference value: 15 +/- 1.5 %). Format: functional. Particulars: dose 0.25 µM.
The nature of data set [10]: Selectivity index, ratio of IC50 for human MRC5 cells to IC50 for human HT29 cells. Particulars: MRC5 cells versus HT29 cells, read-out: Ratio IC50. Format: toxicity.
For data set [11], the system named is MCF7. In words: Induction of apoptosis in human MCF7 cells assessed as early apoptotic cells at 0.5 uM after 72 hrs by Annexin V-FITC/propidium iodide staining-based flow cytometric analysis (reference value: 4.6 %). Format: functional.
For data set [12], the system named is MCF7. In words: Cell cycle arrest in human MCF7 cells assessed as accumulation at G1 phase at 0.125 uM incubated for 72 hrs by PI staining based flow cytometric analysis (reference value: 56.9 +/- 5.6 %). Format: functional.
In data set [13] the test system is MCF7. Briefly: Cell cycle arrest in human MCF7 cells assessed as accumulation at G2/M phase at 0.125 uM incubated for […] staining based flow cytometric analysis (reference value: 15 +/- 1.5 %). The format is functional.

`N#Cc1c2n(c3c(=O)n(-c4ccccc4)cnc13)CCCC2`: the Activity in data set [1] worked out at 6.6%; in data set [3] it was 18.9%; in data set [4], 7.5%; in data set [5] it was 13.6%; in data set [6], 4.8%; in data set [8], 1.6%. The Activity in data set [9] is 18%; in [11], 22.8%; in [12], 61%; in [13], 15.5%. Also, in [2], the “inhibition (INH)” value is given as “Dose-Dependent Effect”. For the same molecule, the viability at 0.125 µM in data set [7] is 86.3%. In addition, the selectivity ratio in data set [10] amounted to 1.36.
